Source: patent US8071300B2, “Drug-phosphorylating enzyme” (Daiichi Sankyo Company, Limited, priority 2006, dated 2011)
Values belong to the molecule of their own block, whether it stands above or below them.

Experiments:
rat erythrocytes = experiment: Phosphorylation of compound 1 and analogs using rat erythrocytes (Example 15); format: cell-based, Wistar-Imamichi rats; conditions: 100 μg/mL substrate, 37° C., 3 hours
Protocol: The efficiency of phosphorylating each compound was calculated using the peak areas of phosphoric ester and unreacted substrate, as shown in the following formula. Phosphorylation efficiency (%)=peak area of phosphoric ester/(peak area of phosphoric ester+peak area of unreacted substrate)×100
Erythrocytes were prepared from Wistar-Imamichi rats (purchased from Institute for Animal Reproduction) in the same manner as in Example 1.
Reaction solution: Rat erythrocytes
Reaction substrate: 100 μg/mL
Reaction condition: 37° C., 3 hours
After completion of the reaction, 1 mL of methanol was added to the reaction solution, and the mixture was then stirred. The mixed solution was centrifuged (16,000×g, 5 minutes, 4° C.). The supernatant was centrifuged again (16,000×g, 10 minutes, 4° C.), and 20 μL of a newly obtained supernatant was then subjected to HPLC, so that analysis was carried out under the conditions described in Example 13. The efficiency of phosphorylating each analog was calculated using the formula as shown in Example 13.

human FN3KRP [1] = biological target: T1, human FN3KRP (Homo sapiens, UniProt Q9HA64); experiment: Phosphorylation of compound 1 and analogs using human FN3KRP expression cytoplasmic fraction (Example 13); format: biochemical; set-up: expressed in transfected cells; host or cells: HEK293, transient, hFN3KRP/pcDNA3.1(+)neo; cytoplasmic fraction (lysate supernatant) used; conditions: 100 μM substrate, 0.328 mg/mL human FN3KRP expression cytoplasmic fraction, 5 mM ATP, 37° C., 3 hours
T1 sequence (Q9HA64 1-309): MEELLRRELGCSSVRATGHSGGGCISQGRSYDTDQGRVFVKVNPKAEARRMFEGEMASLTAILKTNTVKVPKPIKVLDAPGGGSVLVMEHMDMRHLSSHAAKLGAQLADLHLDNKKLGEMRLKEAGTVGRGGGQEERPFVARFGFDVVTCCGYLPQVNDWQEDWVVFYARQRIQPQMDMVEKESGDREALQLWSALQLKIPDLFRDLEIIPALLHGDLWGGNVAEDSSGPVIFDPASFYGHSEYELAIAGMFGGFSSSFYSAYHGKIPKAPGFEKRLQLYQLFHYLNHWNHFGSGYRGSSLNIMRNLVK
Protocol: (§1) HEK293 cells were inoculated to three 75-cm^2 culture flasks, and they were then cultured until they became 80% confluent. Using a lipofectamine plus reagent (Invitrogen), gene introduction was carried out without plasmid DNA, with 4 μg of hFN3KRP/pcDNA3.1(+)neo, and with 4 μg of hFN3K/pcDNA3.2-DEST, for each of the three flasks. Thereafter, the cells were cultured for approximately 27 hours. Thereafter, the cells were washed with PBS, and 2.5 mL of a cell lysate (100 mM HEPES (pH 7.4), 80% (v/v) CelLytic-M (Sigma), 1 mM dithiothreitol, a single protease inhibitor cocktail for 50 mL (Complete EDTA-free, Roche)) was then added to the cells. Thereafter, the cells were intensively shaken, until all of them were removed. The thus removed cells and the supernatant were recovered, and they were then ultracentrifuged at 20,000×g at 4° C. for 15 minutes. Thereafter, the supernatant was recovered, and aliquots each of 200 μL were frozen in liquid nitrogen. They were preserved at −80° C. until used. In addition, a portion of the supernatant was subjected to measurement of protein concentration. […]
(§2) The efficiency of phosphorylating each compound was calculated using the peak areas of phosphoric ester and unreacted substrate, as shown in the following formula. […]

human FN3K [2] = biological target: T2, human FN3K (Homo sapiens, UniProt Q9H479); experiment: Phosphorylation of compound 1 and analogs using human FN3K expression cytoplasmic fraction (Example 14); format: biochemical; conditions: 100 μM substrate, 0.3 mg/mL human FN3K expression cytoplasmic fraction, 5 mM ATP, 37° C., 3 hours
T2 construct: expressed in transfected cells; host or cells: HEK293, transient, hFN3K/pcDNA3.2-DEST; cytoplasmic fraction (lysate supernatant) used
T2 sequence (Q9H479 1-309): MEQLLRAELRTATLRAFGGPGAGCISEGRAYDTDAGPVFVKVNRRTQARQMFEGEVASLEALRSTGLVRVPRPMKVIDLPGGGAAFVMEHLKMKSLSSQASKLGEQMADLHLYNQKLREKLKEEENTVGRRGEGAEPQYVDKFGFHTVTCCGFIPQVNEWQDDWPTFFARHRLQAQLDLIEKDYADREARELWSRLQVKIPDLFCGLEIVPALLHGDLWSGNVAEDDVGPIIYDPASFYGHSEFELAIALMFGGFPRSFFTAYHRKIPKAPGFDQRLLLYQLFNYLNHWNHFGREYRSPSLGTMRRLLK
Protocol: as §1, with “used.” for “used. In addition, a portion of the supernatant was subjected to measurement of protein concentration.”
as §2
After completion of the reaction, 200 μL of methanol was added to the reaction solution, and the mixture was then stirred. […] The efficiency of phosphorylating each analog was calculated using the formula as shown in Example 13.

human FN3K [3] = biological target: T2, human FN3K; experiment: DMF inhibition of compound 1 phosphorylating activity, hydrophobic interaction column active fraction (Example 6); format: biochemical; conditions: active fraction of the hydrophobic interaction column (second purification stage, Example 4)
Protocol: (§3) When 1-deoxy-1-morpholinofructose (DMF; Sigma) was added to the reaction solution, it was added thereto to a final concentration of 1 mM. […] Thereafter, 150 μL of methanol was added to the reaction solution, and the mixture was then filtrated through a filter with a pore diameter of 0.45 μm, so as to terminate the reaction and remove the protein. 10 μL of the filtrate was subjected to a reverse phase chromatography column (TSK-gel ODS-100S; 4.6 mm (diameter)×150 mm (length); Tosoh Corp). Isocratic elution was carried out using 40% acetonitrile comprising 0.1% trifluoroacetic acid at a flow rate of 1 mL/min at a column temperature of 40° C. […] The amount of phosphoric ester of compound 1 generated was measured based on a peak area.

human FN3KRP [4] = biological target: T1, human FN3KRP; experiment: Compound 1 phosphorylating activity of human erythrocyte fractions in presence and absence of 1 mM DMF (FN3KRP purification, Example 6); format: biochemical
Protocol: as §3
(§4) For purification, enzyme activity was always measured in the presence and absence of 1 mM DMF, so that the purification was carried out using activity that is not inhibited by DMF as an indicator.
(§5) The ammonium sulfate precipitate obtained in Example 4 was fractionated by each of an anion exchange column (HiPrep Q 16/10 XL, GE Healthcare Biosciences), a dye-binding affinity column (HiTrap Blue HP 1 mL), a cation exchange column (Mono S PC 1.6/5), and a gel filtration column (Superdex 75 PC 3.2/30).

human FN3KRP [5] = experiment: as above; format: biochemical
Protocol: as §3, §4, §5

human FN3KRP [6] = biological target: T1, human FN3KRP; experiment: Ability of human FN3KRP cytoplasmic fraction to phosphorylate FTY720 and sphingosine (Example 12); format: biochemical; set-up: expressed in transfected cells; host or cells: HEK293, transient, hFN3KRP/pcDNA3.1(+)neo; cytoplasmic fraction (lysate supernatant) used; conditions: 10 μM substrate, 5 mM ATP, approximately 91 μg cytoplasmic fraction, 37° C., 3 hours
Protocol: (§6) Eighteen 1.5-mL polypropylene tubes were prepared. Components were added to each tube to the following final concentrations, with the total amount set at 250 μL, followed by leaving the obtained solution at rest on ice (100 mM HEPES (pH 7.4), 5 mM magnesium chloride, 5 mM ATP, 1 mM dithiothreitol, 0.5% CHAPS, 10 μM FTY720 or sphingosine, each cytoplasmic fraction obtained in Example 10 in an amount of approximately 91 μg). The obtained mixture was incubated in a hot-water bath at 37° C. for 3 hours, and was then transferred onto ice. 0.5 mL methanol was added to each tube, and mixed with the reaction product. Thereafter, the mixture was preserved at −20° C. until LC/MS/MS measurement was carried out.
(§7) The amount of FTY720 phosphoric ester or SIP generated was analyzed using the following LC/MS/MS system.
(§8) LC system: • HPLC apparatus name: Agilent 1100 series (Agilent Technologies) • Autosampler name: HTC PAL (CTC Analytics)
(§9) MS/MS system: • Apparatus name: API4000 (Applied Biosystems/MDS Sciex)

human FN3K [7] = biological target: T2, human FN3K; experiment: Ability of human FN3K cytoplasmic fraction to phosphorylate FTY720 and sphingosine (Example 12); format: biochemical; conditions: 10 μM substrate, 5 mM ATP, approximately 91 μg cytoplasmic fraction, 37° C., 3 hours
Protocol: as §6, §7, §8, §9

Phosphorylation efficiency (human FN3KRP [1]): 37.5%
Phosphorylation efficiency (human FN3K [2]): 0.0%
Structure (SMILES): NC(CO)(CO)CCCc1ccc(Sc2cccc(OCc3ccccc3)c2)cc1Cl [ROX-2127, 2-amino-2-[4-(3-benzyloxyphenylthio)-2-chlorophenyl]propyl-1,3-propanediol]
Phosphorylation efficiency (rat erythrocytes): 31.7%

Structure (SMILES): O=C(CN1CCOCC1)[C@@H](O)[C@H](O)[C@H](O)CO [DMF, 1-deoxy-1-morpholinofructose]
IC50 (human FN3K [3]): ~1000 nM
remaining activity at 1000 µM (human FN3KRP [4]; 1 mM DMF; 2) anion exchange column): 98%
remaining activity at 1000 µM (human FN3KRP [4]; 1 mM DMF; 3) dye-binding affinity column): 110%
remaining activity at 1000 µM (human FN3KRP [4]; 1 mM DMF; 4) cation exchange column): 98%
Inhibition of enzyme activity by DMF (human FN3KRP [4]; enzyme activity after the second purification step): not inhibited
Remaining activity (human FN3KRP [5]; 1 mM DMF; 1) ammonium sulfate precipitation): 89%
Remaining activity (human FN3KRP [5]; 1 mM DMF, soluble fraction): 81%
Inhibition of compound 1 phosphorylating activity by DMF (human FN3KRP [5]; soluble fraction and re-solubilized ammonium sulfate precipitate): hardly observed

Phosphorylation of substrate (LC/MS/MS) (human FN3KRP [6]): do not have ability to phosphorylate
Phosphorylation of substrate (LC/MS/MS) (human FN3K [7]): do not have ability to phosphorylate
Structure (SMILES): CCCCCCCCCCCCC/C=C/[C@@H](O)[C@@H](N)CO [sphingosine]

Phosphorylation of substrate (LC/MS/MS) (human FN3KRP [6]): slightly phosphorylate
Phosphorylation of substrate (LC/MS/MS) (human FN3K [7]): slightly phosphorylate
Structure (SMILES): CCCCCCCCc1ccc(CCC(N)(CO)CO)cc1.Cl [FTY720, 2-Amino-2-[2-(4-octylphenyl)ethyl]propane-1,3-diol hydrochloride]
